Data from PMC8632988, “Inhibition of SYK and cSrc kinases can protect bone and cartilage in preclinical models of osteoarthritis and rheumatoid arthritis” (Scientific Reports, 2021).
Where “and” joins values, the source holds several entries; their conditions need not be identical. Equal values may be shown once.

Legend:
SIK2 = target: T1, SIK2 (Homo sapiens, UniProt Q9H0K1); assay: Kinase selectivity profile assay; assay type: biochemical
T1 construct: purchased Reaction Biology Corporation (Malvern, PA, USA)
T1 sequence (Q9H0K1 whole entry): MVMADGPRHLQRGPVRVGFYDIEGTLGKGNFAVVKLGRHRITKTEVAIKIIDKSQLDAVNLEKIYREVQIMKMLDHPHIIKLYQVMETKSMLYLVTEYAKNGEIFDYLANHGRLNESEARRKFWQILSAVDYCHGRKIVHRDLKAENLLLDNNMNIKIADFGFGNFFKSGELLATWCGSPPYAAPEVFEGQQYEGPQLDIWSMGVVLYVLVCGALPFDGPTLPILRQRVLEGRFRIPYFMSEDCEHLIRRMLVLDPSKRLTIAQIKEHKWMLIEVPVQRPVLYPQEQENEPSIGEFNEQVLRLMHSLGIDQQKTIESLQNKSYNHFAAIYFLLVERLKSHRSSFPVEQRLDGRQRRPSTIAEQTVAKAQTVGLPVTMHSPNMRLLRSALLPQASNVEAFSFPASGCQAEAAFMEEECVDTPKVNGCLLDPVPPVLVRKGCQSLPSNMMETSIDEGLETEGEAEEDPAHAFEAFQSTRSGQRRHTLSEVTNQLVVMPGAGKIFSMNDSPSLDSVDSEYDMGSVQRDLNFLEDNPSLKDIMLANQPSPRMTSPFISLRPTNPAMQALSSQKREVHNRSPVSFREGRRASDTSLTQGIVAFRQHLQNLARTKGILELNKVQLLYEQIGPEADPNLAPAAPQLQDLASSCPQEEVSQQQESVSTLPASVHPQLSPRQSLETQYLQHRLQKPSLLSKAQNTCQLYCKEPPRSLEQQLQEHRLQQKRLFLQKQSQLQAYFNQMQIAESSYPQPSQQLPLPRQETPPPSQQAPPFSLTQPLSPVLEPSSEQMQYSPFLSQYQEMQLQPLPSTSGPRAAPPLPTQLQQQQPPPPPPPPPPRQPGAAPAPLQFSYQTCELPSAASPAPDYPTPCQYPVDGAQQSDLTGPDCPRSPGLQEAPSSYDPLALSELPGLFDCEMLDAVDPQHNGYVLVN
Excerpt: (§1) Kinase activity data was expressed as the percent remaining kinase activity in test samples compared to vehicle (dimethyl sulfoxide) reactions based on the radioactivity of reaction products (see Table S2). Experiment was replicated twice.

BMX/ETK = target: T2, BMX/ETK (Homo sapiens, UniProt P51813); assay: Kinase selectivity profile assay; assay type: biochemical
T2 construct: purchased Reaction Biology Corporation (assay service)
T2 sequence (P51813 whole entry): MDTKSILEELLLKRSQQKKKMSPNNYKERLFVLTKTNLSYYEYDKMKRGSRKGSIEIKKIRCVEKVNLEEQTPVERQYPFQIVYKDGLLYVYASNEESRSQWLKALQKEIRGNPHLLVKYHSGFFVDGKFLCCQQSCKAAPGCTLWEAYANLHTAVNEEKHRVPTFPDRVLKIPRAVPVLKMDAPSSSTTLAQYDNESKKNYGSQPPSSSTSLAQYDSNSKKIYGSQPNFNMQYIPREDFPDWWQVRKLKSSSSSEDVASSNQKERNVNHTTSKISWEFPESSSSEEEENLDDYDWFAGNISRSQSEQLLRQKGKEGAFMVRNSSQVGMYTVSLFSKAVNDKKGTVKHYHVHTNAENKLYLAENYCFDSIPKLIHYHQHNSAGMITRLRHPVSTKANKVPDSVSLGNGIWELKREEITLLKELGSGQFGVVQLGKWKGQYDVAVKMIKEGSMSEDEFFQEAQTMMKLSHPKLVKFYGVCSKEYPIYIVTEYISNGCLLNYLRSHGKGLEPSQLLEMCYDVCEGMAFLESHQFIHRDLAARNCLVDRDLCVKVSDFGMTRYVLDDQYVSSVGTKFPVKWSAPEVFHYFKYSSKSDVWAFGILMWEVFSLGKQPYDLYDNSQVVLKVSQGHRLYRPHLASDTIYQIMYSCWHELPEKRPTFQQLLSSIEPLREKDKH
Excerpt: as §1

IKKa/CHUK = target: T3, IKKa/CHUK (Homo sapiens, UniProt O15111); assay: Kinase selectivity profile assay; assay type: biochemical; settings: 500 nM; relative to DMSO; read-out: Residual enzymatic activity
T3 construct: purchased Reaction Biology Corporation
Excerpt: as §1

MARK1 = target: T4, MARK1 (Homo sapiens, UniProt Q9P0L2); assay: Kinase selectivity profile assay; assay type: biochemical; settings: 500 nM; relative to DMSO; read-out: Residual enzymatic activity
T4 construct: purchased Reaction Biology Corporation
Excerpt: as §1

JNK2 = target: T5, JNK2 (Homo sapiens, UniProt P45984); assay: Kinase selectivity profile assay; assay type: biochemical; settings: 500 nM; relative to DMSO; read-out: Residual enzymatic activity
T5 construct: purchased Reaction Biology Corporation
Excerpt: as §1

PYK2 = target: T6, PYK2 (Homo sapiens, UniProt Q14289); assay: Kinase selectivity profile assay; assay type: biochemical; settings: 500 nM; relative to DMSO; read-out: Residual enzymatic activity
T6 construct: purchased Reaction Biology Corporation
Excerpt: as §1

FGFR2 = target: T7, FGFR2 (Homo sapiens, UniProt P21802); assay: Kinase selectivity profile assay; assay type: biochemical; settings: 500 nM, relative to DMSO
T7 construct: purchased Reaction Biology Corporation
T7 sequence (P21802 22-821): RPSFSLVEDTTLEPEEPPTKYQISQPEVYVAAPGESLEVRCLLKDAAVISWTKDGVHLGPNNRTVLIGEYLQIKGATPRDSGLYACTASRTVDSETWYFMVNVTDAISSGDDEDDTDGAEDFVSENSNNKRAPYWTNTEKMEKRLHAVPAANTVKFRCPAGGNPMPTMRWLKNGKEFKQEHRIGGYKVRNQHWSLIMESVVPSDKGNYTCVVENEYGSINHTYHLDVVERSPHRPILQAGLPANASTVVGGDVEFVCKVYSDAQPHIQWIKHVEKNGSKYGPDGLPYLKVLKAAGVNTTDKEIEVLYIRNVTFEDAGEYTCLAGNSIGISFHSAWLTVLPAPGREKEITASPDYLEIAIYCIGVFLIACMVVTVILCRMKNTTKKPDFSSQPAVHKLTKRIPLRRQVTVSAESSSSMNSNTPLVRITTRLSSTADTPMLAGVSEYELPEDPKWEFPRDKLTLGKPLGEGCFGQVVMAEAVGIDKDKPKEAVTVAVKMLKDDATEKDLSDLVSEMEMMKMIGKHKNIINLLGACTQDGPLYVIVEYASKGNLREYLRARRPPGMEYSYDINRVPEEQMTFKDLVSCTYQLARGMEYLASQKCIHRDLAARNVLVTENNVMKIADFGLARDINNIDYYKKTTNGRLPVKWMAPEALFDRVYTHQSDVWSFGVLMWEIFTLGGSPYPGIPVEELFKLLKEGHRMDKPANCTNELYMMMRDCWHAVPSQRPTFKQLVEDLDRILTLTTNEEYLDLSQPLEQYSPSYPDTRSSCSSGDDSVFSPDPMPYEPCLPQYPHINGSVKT
Excerpt: as §1

TRKC = target: T8, TRKC (Homo sapiens, UniProt Q16288); assay: Kinase selectivity profile assay; assay type: biochemical; settings: 500 nM; relative to DMSO; read-out: Residual enzymatic activity
T8 construct: purchased Reaction Biology Corporation
Excerpt: as §1

TSSK3/STK22C = target: T9, TSSK3/STK22C (Homo sapiens, UniProt Q96PN8); assay: Kinase selectivity profile assay; assay type: biochemical; settings: 500 nM; relative to DMSO; read-out: Residual enzymatic activity
T9 construct: purchased Reaction Biology Corporation
T9 sequence (Q96PN8 whole entry): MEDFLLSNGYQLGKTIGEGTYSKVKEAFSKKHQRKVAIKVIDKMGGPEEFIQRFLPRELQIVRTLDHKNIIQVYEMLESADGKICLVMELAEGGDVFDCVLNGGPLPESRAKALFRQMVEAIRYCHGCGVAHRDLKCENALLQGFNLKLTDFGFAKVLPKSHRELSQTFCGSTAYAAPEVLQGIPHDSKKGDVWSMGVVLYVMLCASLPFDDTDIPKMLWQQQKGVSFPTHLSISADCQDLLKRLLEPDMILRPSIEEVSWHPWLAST
Excerpt: as §1

PAK1 = target: T10, PAK1 (Homo sapiens, UniProt Q13153); assay: Kinase selectivity profile assay; assay type: biochemical; settings: 500 nM; relative to DMSO; read-out: Residual enzymatic activity
T10 construct: purchased Reaction Biology Corporation
T10 sequence (Q13153 whole entry): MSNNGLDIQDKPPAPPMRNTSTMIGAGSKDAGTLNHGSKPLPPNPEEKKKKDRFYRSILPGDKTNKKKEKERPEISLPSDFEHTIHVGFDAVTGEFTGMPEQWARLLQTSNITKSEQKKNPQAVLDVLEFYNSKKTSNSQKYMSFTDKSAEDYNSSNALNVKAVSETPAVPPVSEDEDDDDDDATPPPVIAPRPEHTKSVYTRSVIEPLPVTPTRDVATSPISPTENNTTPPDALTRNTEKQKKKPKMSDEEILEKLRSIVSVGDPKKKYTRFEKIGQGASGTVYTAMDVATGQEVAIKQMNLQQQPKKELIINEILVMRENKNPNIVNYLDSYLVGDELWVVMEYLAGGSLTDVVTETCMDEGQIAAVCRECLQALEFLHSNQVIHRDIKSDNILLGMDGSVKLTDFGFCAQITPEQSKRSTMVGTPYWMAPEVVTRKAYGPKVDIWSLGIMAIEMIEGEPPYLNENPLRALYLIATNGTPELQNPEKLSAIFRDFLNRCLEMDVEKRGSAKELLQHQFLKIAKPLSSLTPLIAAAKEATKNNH
Excerpt: as §1

PAK2 = target: T11, PAK2 (Homo sapiens, UniProt Q13177); assay: Kinase selectivity profile assay; assay type: biochemical; settings: 500 nM; relative to DMSO; read-out: Residual enzymatic activity
T11 construct: purchased Reaction Biology Corporation
T11 sequence (Q13177 whole entry): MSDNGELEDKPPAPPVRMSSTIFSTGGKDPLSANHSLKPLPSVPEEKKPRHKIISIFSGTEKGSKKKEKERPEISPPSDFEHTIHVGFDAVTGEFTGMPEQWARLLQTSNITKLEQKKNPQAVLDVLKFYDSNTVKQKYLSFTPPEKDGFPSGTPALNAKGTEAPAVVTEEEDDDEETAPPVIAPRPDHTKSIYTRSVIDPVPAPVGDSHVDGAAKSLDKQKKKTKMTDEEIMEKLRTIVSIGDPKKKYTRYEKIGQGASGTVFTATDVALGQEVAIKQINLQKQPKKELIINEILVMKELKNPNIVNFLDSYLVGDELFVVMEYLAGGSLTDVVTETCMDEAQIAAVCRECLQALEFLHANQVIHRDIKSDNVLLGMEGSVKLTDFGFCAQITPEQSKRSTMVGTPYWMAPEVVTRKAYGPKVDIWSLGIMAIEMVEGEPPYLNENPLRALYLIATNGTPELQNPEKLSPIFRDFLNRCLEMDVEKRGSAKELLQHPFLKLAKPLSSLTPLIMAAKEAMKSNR
Excerpt: as §1

CAMK1g = target: T12, CAMK1g (Homo sapiens, UniProt Q96NX5); assay: Kinase selectivity profile assay; assay type: biochemical; settings: 500 nM; relative to DMSO; read-out: Residual enzymatic activity
T12 construct: purchased Reaction Biology Corporation
T12 sequence (Q96NX5 whole entry): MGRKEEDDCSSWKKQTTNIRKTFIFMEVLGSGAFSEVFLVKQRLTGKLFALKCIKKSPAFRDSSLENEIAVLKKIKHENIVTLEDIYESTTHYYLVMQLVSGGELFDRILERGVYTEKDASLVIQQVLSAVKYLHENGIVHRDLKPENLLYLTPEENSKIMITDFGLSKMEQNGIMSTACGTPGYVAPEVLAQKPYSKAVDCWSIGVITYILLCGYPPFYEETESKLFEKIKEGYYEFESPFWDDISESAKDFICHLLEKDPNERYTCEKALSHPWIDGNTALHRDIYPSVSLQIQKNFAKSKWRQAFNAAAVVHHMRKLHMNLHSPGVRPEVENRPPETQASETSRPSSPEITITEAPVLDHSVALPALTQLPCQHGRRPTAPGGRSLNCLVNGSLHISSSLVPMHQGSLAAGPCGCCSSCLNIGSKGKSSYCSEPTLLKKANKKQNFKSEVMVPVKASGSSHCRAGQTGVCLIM
Excerpt: as §1

ARK5/NUAK1 = target: T13, ARK5/NUAK1 (Homo sapiens, UniProt O60285); assay: Kinase selectivity profile assay; assay type: biochemical
T13 construct: purchased Reaction Biology Corporation (assay service)
T13 sequence (O60285 whole entry): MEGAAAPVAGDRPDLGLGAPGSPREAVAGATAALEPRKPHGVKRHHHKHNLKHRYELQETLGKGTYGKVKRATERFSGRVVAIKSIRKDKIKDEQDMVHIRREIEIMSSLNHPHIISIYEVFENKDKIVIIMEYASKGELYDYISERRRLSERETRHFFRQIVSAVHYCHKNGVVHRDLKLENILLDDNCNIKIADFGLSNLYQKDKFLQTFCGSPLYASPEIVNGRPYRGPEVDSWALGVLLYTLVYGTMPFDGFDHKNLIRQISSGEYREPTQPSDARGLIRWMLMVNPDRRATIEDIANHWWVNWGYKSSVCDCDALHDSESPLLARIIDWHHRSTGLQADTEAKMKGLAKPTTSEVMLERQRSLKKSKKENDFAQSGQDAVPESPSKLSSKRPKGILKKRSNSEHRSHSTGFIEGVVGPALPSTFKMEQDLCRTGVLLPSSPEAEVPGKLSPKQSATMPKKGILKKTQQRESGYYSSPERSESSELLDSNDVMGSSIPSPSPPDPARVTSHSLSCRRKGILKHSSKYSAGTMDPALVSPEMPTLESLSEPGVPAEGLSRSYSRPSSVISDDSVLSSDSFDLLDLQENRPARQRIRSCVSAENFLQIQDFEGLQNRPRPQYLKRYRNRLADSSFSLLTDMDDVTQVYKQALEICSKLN
Excerpt: as §1

SYK = SYK (Homo sapiens, UniProt P43405); assay: SYK inhibition radiometric assay; assay type: biochemical; set-up: 6xHis; GST; purchased EMD Millipore Corporation (UK), assay service; host or cells: Sf21
Experimental: Radiometric assay was performed at EMD Millipore Corporation (UK) by measuring the extent of substrate phosphorylation by 6xHis-SYK (expressed in Sf21 cells) using the standard protocol.

[1] = test system: Sprague-Dowley rats, medial meniscal tear (MMT) model; assay: Surgically induced meniscal tear OA in rats; assay type: in vivo, rat; settings: day 21
Experimental: Medial meniscal tear (MMT) model was performed at Pharmenterprises, Russia according to the published procedure[31] and approved by Ethics Committee of Pharmenterprises. Male 4-month old Sprague-Dowley rats were anesthetized with Zoletil (Vibrac, France) and Xylazine (Interchemie werken "De Adelaar" BV, Netherlands) mixture. The medial collateral ligament was transected, and the medial meniscus was grasped with a hemostat and reflected proximally toward the femur. The meniscus was transected and then skin was closed with sutures. 60–90 min after surgery rats were subcutaneously injected with flexoprofen (VIC GROUP, Russia). Treatment groups (20 rats each) were intragastrically treated with MT-SYK-03 (100 and 500 mg/kg) or vehicle control (0.5% methylcellulose solution) 24 h before OA induction and then once daily for 21 day. Active control group was subcutaneously injected with zoledronic acid (0.1 mg/kg) 24 h before OA induction and then once every three days for 21 day. After 21 day animals were sacrificed; surgically operated right knee was removed and used for image analysis.

human osteoclasts = assay: Osteoclast-mediated resorption of the mineralized matrix; assay type: cell-based; set-up: Ratio %: unit not given here; settings: for Ratio %: vehicle average = 1.000
Experimental: The experiment was performed at Atlantic Bone Screen (France) and approved by Atlantic Bone Screen ethics committee. Human CD14 + monocytes were isolated from peripheral blood of healthy volunteers (informed consent was obtained from all subjects) using density gradient centrifugation (Ficoll-Hypaque) and magnetic cell sorting (MACS, MiltenyiBiotec). CD14 + monocytes (1.5 × 10^6 cells/well) were cultured for three days in proliferation medium (αMEM/FCS-10% supplemented with 25 ng/mL M-CSF), inducing proliferation and expression of RANK. Secondly, the cells were differentiated into osteoclasts in differentiation medium supplemented with 100 ng/mL RANKL for 4 days. Osteoclasts were detached from the wells using accutase, the cell suspension was homogenized and cells (75 μL/well) were reseeded into: (a) a 96-well plate coated with a synthetic mineralized matrix for an evaluation of osteoclast resorption, or (b) a classic 96-well plastic culture plate, for an assessment of osteoclast number. 75 μL of differentiation medium containing M-CSF and RANKL (at a 2 × concentration) was added to each well. The cells were incubated for an hour and were cultured for 48 h in the fresh differentiation medium supplemented with MT-SYK-03 or vehicle (DMSO, 0.3%). All treatments were carried out in quadruple. Then the cell medium was removed, cells were lysed and the surface of the resorbed areas of the mineralized matrix was quantified in each well. TRAP staining was performed for cells in a classic plastic plate and the number of mature osteoclasts (TRAP-positive cells with three or more nuclei) was determined in each well. Reconstruction of images and osteoclast count was performed using Nikon NIS-D software.

[2] = 500 nM, relative to DMSO, read-out: Residual enzymatic activity
[3] = 10-dose mode, threefold serial dilution from 10 μM
[4] = 100 mg/kg intragastrically once daily
[5] = 500 mg/kg intragastrically once daily
[6] = MT-SYK-03 0.12 μM, individual wells
[7] = MT-SYK-03 0.37 μM, individual wells
[8] = MT-SYK-03 3.3 μM, individual wells
[9] = MT-SYK-03 10 μM, individual wells

## COc1cc(Nc2ncnc(Nc3cc4c(cn3)NC(=O)C(C)(C)O4)n2)cc(OC)c1OC [MT-SYK-03]
SIK2; [2]
  remaining activity at 0.5 µM: 16.2%
SIK2; [3]
  IC50: 23 nM and 23.4 nM
BMX/ETK; [2]
  remaining activity at 0.5 µM: 18%
BMX/ETK; [3]
  IC50: 199 nM
IKKa/CHUK
  remaining activity at 0.5 µM: 100%
MARK1
  remaining activity at 0.5 µM: 95.7%
JNK2
  remaining activity at 0.5 µM: 92.6%
PYK2
  remaining activity at 0.5 µM: 63.4%
FGFR2
  Residual enzymatic activity: 65.1%
FGFR2; read-out: Residual enzymatic activity
  remaining activity at 0.5 µM: > 54%
TRKC
  remaining activity at 0.5 µM: 84.5%
TSSK3/STK22C
  remaining activity at 0.5 µM: 99.9%
PAK1
  remaining activity at 0.5 µM: 100%
PAK2
  remaining activity at 0.5 µM: 94.1%
CAMK1g
  remaining activity at 0.5 µM: 99.2%
ARK5/NUAK1; [2]
  remaining activity at 0.5 µM: 49.7%
ARK5/NUAK1; [3]
  IC50: 376 nM
SYK
  IC50: 40 ± 4 nM
[1]; [4]
  Lesion area: 37.3 ± 3.3%
  Lesion depth: 72.5 ± 6.0%
[1]; [5]
  Lesion area: 30.5 ± 2.8%
  Lesion depth: 35.0 ± 3.0% and 35.0 ± 3.0& %
Human osteoclasts; 10 μM, 48 h, versus vehicle control
  Relative resorbed surface: more than threefold
Human osteoclasts; MT-SYK-03 0.12 μM, Average
  Ratio resorption/Nb OC: 0.079
  Resorption, % resorption: 31.78%
  TRAP, Number of osteoclasts (Nb OC): 405
  Ratio %: 1.001
Human osteoclasts; [6]
  Ratio resorption/Nb OC: 0.088 and 0.075 and 0.085 and 0.067
  Resorption, % resorption: 34.41% and 30.62% and 34.06% and 28.02%
  TRAP, Number of osteoclasts (Nb OC): 389 and 408 and 402 and 419
Human osteoclasts; MT-SYK-03 0.37 μM, Average
  Ratio resorption/Nb OC: 0.062
  Resorption, % resorption: 26.43%
  TRAP, Number of osteoclasts (Nb OC): 422
  Ratio %: 0.789
Human osteoclasts; [7]
  Ratio resorption/Nb OC: 0.084 and 0.065 and 0.069 and 0.031
  Resorption, % resorption: 33.11% and 27.51% and 32.94% and 12.15%
  TRAP, Number of osteoclasts (Nb OC): 394 and 426 and 478 and 391
Human osteoclasts; MT-SYK-03 3.3 μM, Average
  Ratio resorption/Nb OC: 0.015
  Resorption, % resorption: 2.81%
  TRAP, Number of osteoclasts (Nb OC): 196
  Ratio %: 0.197
Human osteoclasts; [8]
  Ratio resorption/Nb OC: 0.014 and 0.025 and 0.011 and 0.012
  Resorption, % resorption: 2.31% and 3.40% and 2.62% and 2.91%
  TRAP, Number of osteoclasts (Nb OC): 165 and 136 and 247 and 235
Human osteoclasts; MT-SYK-03 10 μM, Average
  Ratio resorption/Nb OC: 0.004
  Resorption, % resorption: 1.53%
  TRAP, Number of osteoclasts (Nb OC): 8
  Ratio %: 0.044
Human osteoclasts; [9]
  Ratio resorption/Nb OC: 0.016 and 0.024 and 0.023 and 0.028
  Resorption, % resorption: 5.87% and 9.73% and 8.76% and 11.00% and 8.84%
  TRAP, Number of osteoclasts (Nb OC): 371 and 402 and 388 and 390
